In PMC5625148, “Arginine‐rich membrane‐permeable peptides are seriously toxic” (Pharmacology Research & Perspectives, 2017):
Counter-ions that a name gives are not always drawn.

What was measured:
mice [1] = experiment: Acute toxicity study in mice after intravenous (tail vein) injection of MPPs or MPP-conjugates; type: in vivo, mice (Kunming species)
Experimental: A total of 390 mice (Kunming species, 22 ± 2 g, sex matched), were provided by the Experimental animal center of Academy of military medical sciences, China. The health condition of the mice was examined to confirm their suitability for use in the study. The animal rooms were monitored and maintained under a 12 h light‐dark cycle with temperature ranging from 20 to 25°C and a relative humidity of 40–60%. All the mice were allowed to acclimate to the laboratory environment for 2 days, housed by sex in groups of five per cage, provided with standard commercial diet and drinking water ad libitum. All the animal procedures performed in this study were reviewed and approved by the Animal Experimental Welfare and Ethical Inspection Committee of the Chinese Center for Disease Control and Prevention (Approval number IACUC#15‐026).
Firstly, a preliminary sequential toxicity testing was carried to find out the scope of the dosage. Then four dosages within this range were properly selected to carry on the LD50 estimation. The LD50 was calculated avoid the all or none survival groups of mice.
Five males and five females per group were stratified by weight and assigned randomly. The control mice and those in groups 1, 2, 3, 4 were intravenously injected with different doses of MPPs or MPP‐conjugates. The general behavior and signs of toxicity were monitored for 3 h after administration, and carried on once a day up to 14 days. The surviving mice were euthanized while those died from the poisoning were necropsied.
All the data are expressed as the means ± standard deviation (SD), and comparisons among the different groups were performed using an analysis of variance (ANOVA). The IBM statistical package for the social science (SPSS) statistics 20 software was used for all the analysis. The significance level was set at 5 and 1% (P < 0.05 and P < 0.01). The LD50 value was determined according to the Bliss method (Badisa et al. 2008).

mice [2] = conditions: converted from rat value; ref Saka et al. 2004; cited from earlier work
Source text: (§1) The mechanism of the poisonous effects caused by TAT and CTP is not yet well understood. However, it is known that L‐arginine stimulates the release of insulin and causes necrotic pancreatitis with specific elevation of amylase in serum and urine. […] Thus, the higher mass ratio of arginine residues in the conjugate (Table 4) might be the best explanation of the toxicity.

rats = conditions: ref Saka et al. 2004; cited from earlier work
Source text: as §1

[3] = iv, Bliss method, five males and five females per group, observed up to 14 days, Table 2

Compound: NCCCC(=O)O [GABA, γ‐aminobutyric acid]
- Toxicity in words (mice [1]; dose as high as 8000 mg kg^−1): not toxic at all
- Survival rate (%) (mice [1]; iv, 8000 mg kg^−1): 100%

Compound: O=C(O)C(F)(F)F [TFA, Trifluoroacetic acid]
- Toxicity in words (TFA control group) (mice [1]; 0.1% TFA solution): did not manifest any toxicity
- Toxicity in words (TFA control group) (mice [1]; 0.5% TFA solution): did not manifest any toxicity
- Toxicity in words (TFA control group) (mice [1]; 1% TFA solution): did not manifest any toxicity
- Toxicity in words (TFA control group) (mice [1]; 2% TFA solution): death appeared in a part of the mice

Compound: N=C(N)NCCC[C@H](N)C(=O)O [arginine]
- LD50 of arginine, corresponding value in mice (mice [2]): 542 mg/kg
- LD50 of arginine in rats (rats): 3793 mg/kg

Compound: ACSSSPSKHCG [TD]
- Survival rate (%) (mice [1]; iv, 140 mg kg^−1): 100%
- LD50 (mice [1]; [3]): >140 mg/kg
- Mortality (%) (mice [1]; iv, group 1, 80 mg kg^−1): 0%
- Mortality (mice [1]; iv, group 1, 80 mg kg^−1, dead/total): 0/2
- Mortality (%) (mice [1]; iv, group 2, 100 mg kg^−1): 0%
- Mortality (mice [1]; iv, group 2, 100 mg kg^−1, dead/total): 0/8
- Mortality (%) (mice [1]; iv, group 3, 140 mg kg^−1): 0%
- Mortality (mice [1]; iv, group 3, 140 mg kg^−1, dead/total): 0/8
- LD50 (mice [1]; iv, rounded values of Table 4): >140 mg/kg
- Survival and side effects in words (mice [1]; tail vein, 140 mg kg^−1): all the mice well survived even without any side effect appeared

Compound: RRRRRRRRRRR [R11, undecapeptide composed purely of arginine residues, …]
- LD50 (mice [1]; iv (tail vein), values in text): 16.5 mg/kg
- Survival rate (%) (mice [1]; iv, 16.5 mg kg^−1): 50%
- LD50 (mice [1]; [3]): 16.508 mg/kg
- Mortality (%) (mice [1]; iv, group 1, 15.5 mg kg^−1): 10%
- Mortality (mice [1]; iv, group 1, 15.5 mg kg^−1, dead/total): 1/10
- Mortality (%) (mice [1]; iv, group 2, 16 mg kg^−1): 30%
- Mortality (mice [1]; iv, group 2, 16 mg kg^−1, dead/total): 3/10
- Mortality (%) (mice [1]; iv, group 3, 16.5 mg kg^−1): 50%
- Mortality (mice [1]; iv, group 3, 16.5 mg kg^−1, dead/total): 5/10
- Mortality (%) (mice [1]; iv, group 4, 17 mg kg^−1): 70%
- Mortality (mice [1]; iv, group 4, 17 mg kg^−1, dead/total): 7/10
- LD50 (mice [1]; iv, rounded values of Table 4): 16.5 mg/kg

Compound: YGRKKRRQRRR [TAT, arginine-rich membrane-permeable undecapeptide …]
- LD50 (mice [1]; iv (tail vein), values in text): 27.244 mg/kg
- Survival rate (%) (mice [1]; iv, 27 mg kg^−1): 50%
- LD50 (mice [1]; [3]): 27.244 mg/kg
- Mortality (%) (mice [1]; iv, group 1, 25 mg kg^−1): 22.2%
- Mortality (mice [1]; iv, group 1, 25 mg kg^−1, dead/total): 2/9
- Mortality (%) (mice [1]; iv, group 2, 27 mg kg^−1): 44.4%
- Mortality (mice [1]; iv, group 2, 27 mg kg^−1, dead/total): 4/9
- Mortality (%) (mice [1]; iv, group 3, 28 mg kg^−1): 55.6%
- Mortality (mice [1]; iv, group 3, 28 mg kg^−1, dead/total): 5/9
- Mortality (%) (mice [1]; iv, group 4, 30 mg kg^−1): 87.5%
- Mortality (mice [1]; iv, group 4, 30 mg kg^−1, dead/total): 7/8
- LD50 (mice [1]; iv, rounded values of Table 4): 27 mg/kg

Compound: YGRRARRRRRR [CTP, arginine-rich membrane-permeable undecapeptide […]]
- LD50 (mice [1]; iv (tail vein), values in text): 21.345 mg/kg
- Survival rate (%) (mice [1]; iv, 21 mg kg^−1): 50%
- LD50 (mice [1]; [3]): 21.345 mg/kg
- Mortality (%) (mice [1]; iv, group 1, 19.5 mg kg^−1): 20%
- Mortality (mice [1]; iv, group 1, 19.5 mg kg^−1, dead/total): 2/10
- Mortality (%) (mice [1]; iv, group 2, 20 mg kg^−1): 30%
- Mortality (mice [1]; iv, group 2, 20 mg kg^−1, dead/total): 3/10
- Mortality (%) (mice [1]; iv, group 3, 20.5 mg kg^−1): 36.4%
- Mortality (%) (mice [1]; iv, group 4, 22 mg kg^−1): 60%
- Mortality (mice [1]; iv, group 4, 22 mg kg^−1, dead/total): 6/10
- LD50 (mice [1]; iv, rounded values of Table 4): 21 mg/kg
